Data reported in BigSolDB 2.1.

COc1ccccc1OCCNCC(O)COc1cccc2[nH]c3ccccc3c12 (stereo not drawn)
solubility (mole fraction)
Details | 278.15 K | 283.15 K | 288.15 K | 293.15 K | 298.15 K | 303.15 K | 308.15 K | 313.15 K
in THF | 0.00043 | 0.00061 | 0.00085 | 0.00118 | 0.00167 | 0.00227 | 0.00302 | 0.004
in acetone | 0.00064 | 0.00088 | 0.00117 | 0.00154 | 0.0021 | 0.00268 | 0.00354 | 0.0046
in ethanol | 0.00062 | 0.00085 | 0.00112 | 0.00143 | 0.00185 | 0.00246 | 0.00306 | 0.00389
in ethyl acetate | 0.00063 | 0.00086 | 0.00146 | 0.00187 | 0.0024 | 0.00294 | 0.00371 | 0.00424
in methanol | 0.00063 | 0.00087 | 0.00114 | 0.0015 | 0.00201 | 0.00256 | 0.00329 | 0.00419
in water | 0.0196 | 0.0232 | 0.0278 | 0.033 | 0.0398 | 0.0468 | 0.0552 | 0.0641
